{"source": "patent US5371102A", "about": "“Compositions and methods of inhibiting thyroid activity” (priority 1993, dated 1994)", "key": {"LPX [1]": {"molecular_target": "T1, LPX (Bos taurus, UniProt P80025)", "T1 construct": "purchased Sigma Chemical Company", "assay": "LPX-catalyzed oxidation of guaiacol or ABTS", "format": "biochemical, bovine", "conditions": "LPX plus hydrogen peroxide", "description": "Materials used in the examples below were obtained from the following sources. Bovine LPX, bovine liver catalase, glucose oxidase, 30% hydrogen peroxide, glucose, guaiacol, ABTS and deuterium oxide were purchased from Sigma Chemical Company. Selenium dioxide, MBI ^13 CH3 I and PBA were purchased from Aldrich Chemical Company and PBA was purified as previously described by Fieset et al., Reagents for Organic Synthesis, Vol. I, pp.135-139, John Wiley and Sons, N.Y. (1967). LPX purity was checked by PAGE, as described by Doerge, D.R., et al. in, Biochem. Pharmacol., Vol.36, pp.972-974 (1986). TPX was purified from hog thyroids obtained from a local slaughterhouse by published procedures. Doerge & Takazowa, Chemical Research in Toxicology, Vol. 3, pp. 98-101 (1990). TPX purity was determined by LC and its concentration determined spectophotometrically. Hydroperoxide concentrations were determined by iodometric titration, as described by Kolthoff, et al., in \"Quantitative Chemical Analysis\", Macmillan, London, pp.842-860 (1969). […] PPHP and PPA were prepared, purified and analyzed as previously described by Doerge, Biochem, Vol.27, p.11 (1988). […]\nInhibition of LPX activity by thiones was determined from the kinetics of iodide ion, guaiacol or ABTS oxidation assays conducted at 25° C. Kinetic parameters of suicide inactivation were determined as previously described. […]"}, "LPX [2]": {"molecular_target": "T1, LPX", "assay": "LPX-mediated oxidative turnover of DMMBI and hydroperoxide", "format": "biochemical, bovine", "description": "Materials used in the examples below were obtained from the following sources. Bovine LPX, bovine liver catalase, glucose oxidase, 30% hydrogen peroxide, glucose, guaiacol, ABTS and deuterium oxide were purchased from Sigma Chemical Company. Selenium dioxide, MBI ^13 CH3 I and PBA were purchased from Aldrich Chemical Company and PBA was purified as previously described by Fieset et al., Reagents for Organic Synthesis, Vol. I, pp.135-139, John Wiley and Sons, N.Y. (1967). LPX purity was checked by PAGE, as described by Doerge, D.R., et al. in, Biochem. Pharmacol., Vol.36, pp.972-974 (1986). TPX was purified from hog thyroids obtained from a local slaughterhouse by published procedures. Doerge & Takazowa, Chemical Research in Toxicology, Vol. 3, pp. 98-101 (1990). TPX purity was determined by LC and its concentration determined spectophotometrically. Hydroperoxide concentrations were determined by iodometric titration, as described by Kolthoff, et al., in \"Quantitative Chemical Analysis\", Macmillan, London, pp.842-860 (1969). MMBI, and BI were synthesized by published procedures as described by Doerge, D.R., Biochem, Vol. 27, pp. 3697-3700 (1988) and were recrystallized from aqueous ethanol. MeBI was purified by distillation and DMeBI^+ was synthesized and purified by recrystallization from ethyl acetate/methanol. 1-^13 C-MMBI was synthesized from ^13 CH3 I according to the procedure disclosed by Doerge, D.R., in, J. Lab. Comp. and Radiopharm., Vol.25, pp.985-990 (1988). PPHP and PPA were prepared, purified and analyzed as previously described by Doerge, Biochem, Vol.27, p.11 (1988). The methyl ester of 1-methyl-benzimidazole-2-sulfinic acid was prepared by addition of hydrogen peroxide (5 equivalents of a 10 M solution) to MMBI (0.1 M) in methanol. The products, MeBI and the ester, were obtained following preparative TLC on silica (Uniplate, Analtech Co., Newark, DL) using 5% methanol/chloroform as eluant.\nThe distinct methyl and aromatic proton resonances of DMMBI and DMeBI^+ in the ^1 H-NMR spectrum provide a sensitive method to detect enzymatic transformation of DMMBI. DMMBI (100 μM) was incubated with LPX (50 μM), iodide ion (5 mM) and hydrogen peroxide (300 μM) in 10 mls of 0.01 M phosphate buffer solution, pH 7.0. The solution was incubated at 25° C. for 1 min followed by addition of catalase. The sample was then lyophilized and analyzed by ^1 H-NMR. The solids were dissolved in 1 ml D2 O and lyophilized again. Proton-deuterium exchange was repeated twice more and the solids were dissolved in 0.5 ml D2 O containing DSS. The HOD peak was suppressed in a one pulse presaturation experiment where the HOD peak was irradiated for 2 sec prior to acquisition of sample resonances. The ^1 H-NMR spectra of DMeBI^+ and DMMBI were similarly recorded in D2 O.\nPPHP is a chromophoric hydroperoxide interchangeable with hydrogen peroxide in many peroxidase-catalyzed reactions. LPX-catalyzed turnover of PPHP gives PPA, the corresponding alcohol, which can be quantitated by HPLC. The use of PPHP permits a direct correlation of LPX-catalyzed substrate consumption and product formation with actual hydroperoxide turnover."}, "[3]": {"assay": "chemical oxidation stoichiometry of thiones", "format": "physicochemical", "experimental": "Oxidation stoichiometries were determined for the thione compounds MBI, MMBI and DMMBI by incubating the thiones with varying amounts of PBA (0-250μM). The rapid reaction (t1/2 <10 s at 25° C.) of benzimidazole-2-thiones with PBA in methanol provided a convenient method for determining oxidation stoichiometry.\nOxidation stoichiometries were determined spectrophoto, metrically, using a Hewlett Packard 8452A diode array spectrophotometer, by measuring thione concentration at 305 nm as a function of PBA concentration. Hydroperoxide content was determined iodometrically. Stoichiometries of substrate consumption/product formation were also determined by addition of limiting amounts of PBA to 100 μM MBI or MMBI in 50% methanol/pH 7 phosphate. The disappearance of thione and the production of BI, MeBI and bisulfite ion was determined after one hour at 25° C. The production of bisulfite ion was measured […]. The production of sulfate ion was determined by ion chromatography using a AS4A column (Dionex Co., Sunnyvale, CA) with a Dionex Gradient Pump Module and a Dionex CDM II conductivity detector equipped with an AMMS suppressor using 3 mM carbonate/bicarbonate buffer pH 10 as eluant at 2.0 ml/min. Reaction products were also monitored by ^1 H NMR performed at 300 MHz using a Nicolet NT300 or General Electric QE300 spectrometer DSS as a reference."}, "[4]": {"assay": "kinetics of thione oxygenation by hydrogen peroxide/TFA", "format": "physicochemical", "conditions": "thione 25 μM, H2O2 34 mM, TFA 163 mM in methanol, 25° C.; relative to DMMBI", "experimental": "The kinetics of thione oxygenation were determined for MBI, MMBI and DMMBI. Oxygenation by hydrogen peroxide/TFA was measured spectrophotometrically (305 nm) at 25° C. by addition of thione (final concentration 25 μM) to hydrogen peroxide (34 mM) and TFA (163 mM) in methanol."}, "[5]": {"assay": "reaction of DMMBI with preformed triiodide", "conditions": "triiodide formed by H2O2, LPX and iodide ion", "description": "When triiodide ion was formed by addition of hydrogen peroxide to LPX and iodide ion, addition of DMMBI caused rapid quenching of triiodide (ca. 1 sec) and DMeBI^+ was the sole product. Triiodide produced by addition of […] to aqueous iodide ion reacted identically with DMMBI."}, "[6]": {"conditions": "PPHP-supported LPX-catalyzed iodination"}}, "note": "Entries after “also recorded” stand apart in the source; their conditions may differ.", "data": [{"smiles": "Cn1c(=S)n(C)c2ccccc21", "note": "[DMMBI, 1,3-dimethylbenzimidazole-2-thione]", "values": [{"measurement": "effect on rate of enzymatic oxidation of guaiacol or ABTS", "setting": "LPX [1]", "value": "did not reduce the rate of enzymatic oxidation; also recorded: does not affect LPX or TPX/hydrogen peroxide-catalyzed oxidation of the substrates ABTS and guaiacol"}, {"measurement": "conversion of DMMBI to DMeBI+", "setting": "LPX [2]; LPX, 3 equivalents H2O2 and iodide ion", "value": "quantitative conversion of DMMBI to DMeBI^+"}, {"measurement": "turnover events without LPX inactivation", "setting": "LPX [2]; LPX, hydrogen peroxide and iodide ion", "value": "> 300", "unit": "turnover events"}, {"measurement": "moles of PPA formed per mole of DMMBI consumed", "setting": "LPX [2]; [6]", "value": "3.2 ± 0.2", "unit": "mol"}, {"measurement": "moles of PPHP consumed per mole of DMMBI consumed", "setting": "LPX [2]; [6]", "value": 3.2, "unit": "mol"}, {"measurement": "conversion of DMMBI to DMeBI+", "setting": "LPX [2]; controls: no iodide ion, no LPX or no hydrogen peroxide", "value": "no conversion of DMMBI to DMeBI^+ was observed"}, {"measurement": "equivalents of oxidant required", "setting": "[3]; PBA or hydrogen peroxide, aqueous medium, products DMeBI+ and sulfate", "value": 3, "unit": "equivalents"}, {"measurement": "moles of oxidant required for total reaction", "setting": "[3]; PBA, FIG. 4", "value": "three"}, {"measurement": "equivalents of hydroperoxide required per mole of thione", "setting": "[3]; hydroperoxides", "value": 3, "unit": "equivalents"}, {"measurement": "relative rate of oxygenation", "setting": "[4]", "value": 1}, {"measurement": "time of triiodide quenching", "setting": "[5]", "value": "ca. 1 sec"}]}]}
